Test results taken from patent US20250340591A1, “COMPOSITION FOR PREVENTING OR TREATING INFLAMMATORY BOWEL DISEASE CONTAINING NOVEL COMPOUND” (ANYGEN CO., LTD., priority 2021, published 2025).
Square brackets hold non-standard residues; d marks the D form. Peptide text beside a SMILES is read from it. * marks the point of attachment. His(Trt) = N[C@@H](Cc1cn(C(c2ccccc2)(c2ccccc2)c2ccccc2)cn1)C(=O)O; His(τ-CHPh2) = N[C@@H](Cc1cn(C(c2ccccc2)c2ccccc2)cn1)C(=O)O; His(τ-Bzl) = N[C@@H](Cc1cn(Cc2ccccc2)cn1)C(=O)O; dPhe(4-Cl) = N[C@H](Cc1ccc(Cl)cc1)C(=O)O; dPhe(4-Me) = Cc1ccc(C[C@@H](N)C(=O)O)cc1; Dmt = Cc1cc(O)cc(C)c1C[C@H](N)C(=O)O; Octanoyl = CCCCCCCC(=O)*

target: T1, GPR39 (Homo sapiens, UniProt O43194); experiment: luciferase assay system (SRE luciferase reporter gene, CV-1 cells expressing GPR39); type: cell-based; design: expressed in transfected cells; host or cells: CV-1 fibroblast cell line (Korea Cell Line Bank), adenoviral transduction at 50 MOI; conditions: not given
T1 sequence (O43194 1-453): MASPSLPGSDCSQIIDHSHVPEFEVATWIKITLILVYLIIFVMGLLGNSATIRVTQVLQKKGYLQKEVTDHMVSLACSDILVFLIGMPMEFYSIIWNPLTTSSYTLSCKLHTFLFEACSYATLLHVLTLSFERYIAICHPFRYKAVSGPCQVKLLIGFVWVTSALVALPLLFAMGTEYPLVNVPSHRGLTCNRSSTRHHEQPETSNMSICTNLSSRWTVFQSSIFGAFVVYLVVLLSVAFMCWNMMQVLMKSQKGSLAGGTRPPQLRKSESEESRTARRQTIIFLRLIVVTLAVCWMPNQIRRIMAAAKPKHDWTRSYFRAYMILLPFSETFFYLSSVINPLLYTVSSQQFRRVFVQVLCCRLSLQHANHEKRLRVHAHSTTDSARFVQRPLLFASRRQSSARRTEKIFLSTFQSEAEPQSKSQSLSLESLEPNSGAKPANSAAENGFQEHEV

Row | Compound | ECmax (−fold induction over basal) [fold induction over basal]
1 | CCCCCCCC(=O)NCCCC[C@H](NC(=O)[C@@H](N)Cc1cn(C(c2ccccc2)(c2ccccc2)c2ccccc2)cn1)C(=O)N[C@@H](Cc1ccccc1)C(=O)O [HKFY-49, N6-octanoyl-N2-(Nt-trityl-L-histidyl)-L-lysyl-L-phenylalanine] (H-[His(Trt)]-Lys(Octanoyl)-Phe-OH) | 18.3 ± 1.8
2 | CCCCCCCC(=O)NCCCC[C@H](NC(=O)[C@@H](N)Cc1cn([C@H](c2ccccc2)c2ccc(Cl)cc2)cn1)C(=O)N[C@@H](Cc1ccccc1)C(=O)N[C@@H](Cc1ccc(O)cc1)C(=O)O [HKFY-21, N2-(Nt-((R)-(4-chlorophenyl)(phenyl)methyl)-L-histidyl)-N6-octanoyl-L-lysyl-L-phenylalanyl-L-tyrosine] | 18.3 ± 2.5
3 | CCCCCCCC(=O)NCCCC[C@H](NC(=O)[C@@H](N)Cc1cn(C(c2ccccc2)c2ccccc2)cn1)C(=O)N[C@H](Cc1ccc(C)cc1)C(=O)N[C@@H](Cc1ccc(O)cc1)C(N)=O [HKFY-66, N-((S)-5-((S)-2-amino-3-(1-benzhydryl-1H-imidazol-4-yl)propanamido)-6-(((R)-1-(((S)-1-amino-3-(4-hydroxyphenyl)-1-oxopropan-2-yl)amino)-1-oxo-3-(p-tolyl)propan-2-yl)amino)-6-oxohexyl)octanamide] (H-[His(τ-CHPh2)]K(Octanoyl)[dPhe(4-Me)]Y-NH2) | 20.2 ± 3.5
4 | C[C@H](NC(=O)[C@H](CCC(N)=O)NC(=O)[C@H](CCC(N)=O)NC(=O)[C@H](CC(=O)O)NC(=O)[C@H](Cc1ccc(O)cc1)NC(=O)[C@H](Cc1ccccc1)NC(=O)[C@@H](N)Cc1cn(C(c2ccccc2)(c2ccccc2)c2ccccc2)cn1)C(=O)N[C@@H](CCCNC(=N)N)C(=O)N[C@@H](Cc1ccccc1)C(N)=O [HKFY-52, (6S,9S,12S,15S,18S)-1-amino-6-(((S)-1-amino-1-oxo-3-phenylpropan-2-yl)carbamoyl)-18-((S)-2-((S)-2-((S)-2-amino-3-(1-trityl-1H-imidazol-4-yl)propanamido)-3-phenylpropanamido)-3-(4-hydroxyphenyl)propanamido)-12,15-bis(3-amino-3-oxopropyl)-1-imino-9-methyl-8,11,14,17-tetraoxo-2,7,10,13,16-pentaazaicosan-20-oic acid] (H-[His(Trt)]FYDQQARF-NH2) | 15.5 ± 2.2
5 | CCCCCCCC(=O)NCCCC[C@H](NC(=O)[C@@H](N)Cc1c[nH]c(-c2ccc(C(C)(C)C)cc2)n1)C(=O)N[C@H](Cc1ccc(C)cc1)C(=O)N[C@@H](Cc1ccc(O)cc1)C(=O)O [HKFY-60, ((R)-2-((S)-2-((S)-2-amino-3-(2-(4-(tert-butyl)phenyl)-1H-imidazol-4-yl)propanamido)-6-octanamidohexanamido)-3-(p-tolyl)propanoyl)-L-tyrosine] | 28.2 ± 2.5
6 | CCCCCCCC(=O)NCCCC[C@H](NC(=O)[C@@H](N)Cc1cn(C(c2ccccc2)c2ccc(O)cc2)cn1)C(=O)N[C@H](Cc1ccc(C)cc1)C(=O)N[C@@H](Cc1ccc(O)cc1)C(=O)O (stereo partly drawn) [HKFY-65, ((2R)-2-((2S)-2-((2S)-2-amino-3-(1-((4-hydroxyphenyl)(phenyl)methyl)-1H-imidazol-4-yl)propanamido)-6-octanamidohexanamido)-3-(p-tolyl)propanoyl)-L-tyrosine] | 18.3 ± 2.2
7 | CCCCCCCC(=O)NCCCC[C@H](NC(=O)[C@@H](N)Cc1cn(C(c2ccccc2)(c2ccccc2)c2ccccc2)cn1)C(=O)N[C@@H](Cc1ccccc1)C(=O)N[C@@H](Cc1ccc(O)cc1)C(=O)N[C@@H](Cc1c[nH]cn1)C(=O)N[C@@H](CCC(N)=O)C(=O)N[C@@H](CCC(N)=O)C(=O)N[C@@H](C)C(=O)N[C@@H](CCCNC(=N)N)C(=O)N[C@@H](Cc1ccccc1)C(N)=O [HKFY-42, (S)-2-((2S,5S,8S,11S)-2-((1H-imidazol-4-yl)methyl)-11-((S)-2-amino-3-(1-trityl-1H-imidazol-4-yl)propanamido)-8-benzyl-5-(4-hydroxybenzyl)-4,7,10,17-tetraoxo-3,6,9,16-tetraazatetracosanamido)-N1-((S)-5-amino-1-(((S)-1-(((S)-1-(((S)-1-amino-1-oxo-3-phenylpropan-2-yl)amino)-5-guanidino-1-oxopentan-2-yl)amino)-1-oxopropan-2-yl)amino)-1,5-dioxopentan-2-yl)pentanediamide] (H-[His(Trt)]K(Octanoyl)FYHQQARF-NH2) | 11.8 ± 0.02
8 | CCCCCCCC(=O)NCCCC[C@H](NC(=O)[C@@H](N)Cc1cn(-c2ccccc2)c(-c2ccccc2)n1)C(=O)N[C@H](Cc1ccc(C)cc1)C(=O)N[C@@H](Cc1ccc(O)cc1)C(=O)O [HKFY-59, ((R)-2-((S)-2-((S)-2-amino-3-(1,2-diphenyl-1H-imidazol-4-yl)propanamido)-6-octanamidohexanamido)-3-(p-tolyl)propanoyl)-L-tyrosine] | 6.76 ± 2.2
9 | CCCCCCCC(=O)NCCCC[C@H](NC(=O)[C@@H](N)Cc1cn(Cc2ccccc2)cn1)C(=O)N[C@@H](Cc1ccccc1)C(=O)N[C@@H](Cc1ccc(O)cc1)C(=O)O [HKFY-3, N2-(Nt-benzyl-L-histidyl)-N6-octanoyl-L-lysyl-L-phenylalanyl-L-tyrosine] (H-[His(τ-Bzl)]K(Octanoyl)FY-OH) | 9.2 ± 2.58
10 | CCCCCCCC(=O)NCCCC[C@H](NC(=O)[C@@H](N)Cc1cn(C(c2ccccc2)c2ccc(OC)cc2)cn1)C(=O)N[C@H](Cc1ccc(C)cc1)C(=O)N[C@@H](Cc1ccc(O)cc1)C(=O)O (stereo partly drawn) [HKFY-64, ((2R)-2-((2S)-2-((2S)-2-amino-3-(1-((4-methoxyphenyl)(phenyl)methyl)-1H-imidazol-4-yl)propanamido)-6-octanamidohexanamido)-3-(p-tolyl)propanoyl)-L-tyrosine] | 16 ± 1.5
11 | CCCCCCCC(=O)NCCCC[C@@H](NC(=O)[C@@H](N)Cc1cn(C(c2ccccc2)(c2ccccc2)c2ccccc2)cn1)C(=O)N[C@H](Cc1ccc(Cl)cc1)C(=O)N[C@@H](Cc1ccc(O)cc1)C(=O)O [HKFY-16, ((R)-2-((R)-2-((S)-2-amino-3-(1-trityl-1H-imidazol-4-yl)propanamido)-6-octanamidohexanamido)-3-(4-chlorophenyl)propanoyl)-L-tyrosine] (H-[His(Trt)][dK](Octanoyl)[dPhe(4-Cl)]Y-OH) | 27.9 ± 3.4

same assay, conditions: CV-1 cells, GPR39 and SRE luciferase adenovirus, 6 hours treatment

Row | Compound | ECmax (−fold induction over basal) [fold induction over basal]
12 | CCCCCCCC(=O)NCCCC[C@H](NC(=O)[C@@H](N)Cc1cn(C(c2ccccc2)c2ccccc2)cn1)C(=O)N[C@H](Cc1ccc(C)cc1)C(=O)N[C@@H](Cc1c(C)cc(O)cc1C)C(=O)O [HKFY-36, (S)-2-((R)-2-((S)-2-((S)-2-amino-3-(1-benzhydryl-1H-imidazol-4-yl)propanamido)-6-octanamidohexanamido)-3-(p-tolyl)propanamido)-3-(4-hydroxy-2,6-dimethylphenyl)propanoic acid] (H-[His(τ-CHPh2)]K(Octanoyl)[dPhe(4-Me)][Dmt]-OH) | 9.9 ± 0.28

same assay, conditions: comment on Table 3

Row | Compound | activity level for GPR39 (in words)
13 | CCCCCCCC(=O)NCCCC[C@H](NC(=O)[C@@H](N)Cc1cn(C(c2ccccc2)c2ccc(O)cc2)cn1)C(=O)N[C@H](Cc1ccc(C)cc1)C(=O)N[C@@H](Cc1ccc(O)cc1)C(=O)O (stereo partly drawn) [HKFY-65, ((2R)-2-((2S)-2-((2S)-2-amino-3-(1-((4-hydroxyphenyl)(phenyl)methyl)-1H-imidazol-4-yl)propanamido)-6-octanamidohexanamido)-3-(p-tolyl)propanoyl)-L-tyrosine] | higher activity level than other HKFY derivatives
14 | CCCCCCCC(=O)NCCCC[C@H](NC(=O)[C@@H](N)Cc1cn(C(c2ccccc2)c2ccc(OC)cc2)cn1)C(=O)N[C@H](Cc1ccc(C)cc1)C(=O)N[C@@H](Cc1ccc(O)cc1)C(=O)O (stereo partly drawn) [HKFY-64, ((2R)-2-((2S)-2-((2S)-2-amino-3-(1-((4-methoxyphenyl)(phenyl)methyl)-1H-imidazol-4-yl)propanamido)-6-octanamidohexanamido)-3-(p-tolyl)propanoyl)-L-tyrosine] | higher activity level than other HKFY derivatives
